Where two headings read alike, the source gives them in different places.

The target of data set [1] is T1, Alk2/ACVRR1 (Homo sapiens, UniProt Q04771).
T1 sequence (Q04771 21-509): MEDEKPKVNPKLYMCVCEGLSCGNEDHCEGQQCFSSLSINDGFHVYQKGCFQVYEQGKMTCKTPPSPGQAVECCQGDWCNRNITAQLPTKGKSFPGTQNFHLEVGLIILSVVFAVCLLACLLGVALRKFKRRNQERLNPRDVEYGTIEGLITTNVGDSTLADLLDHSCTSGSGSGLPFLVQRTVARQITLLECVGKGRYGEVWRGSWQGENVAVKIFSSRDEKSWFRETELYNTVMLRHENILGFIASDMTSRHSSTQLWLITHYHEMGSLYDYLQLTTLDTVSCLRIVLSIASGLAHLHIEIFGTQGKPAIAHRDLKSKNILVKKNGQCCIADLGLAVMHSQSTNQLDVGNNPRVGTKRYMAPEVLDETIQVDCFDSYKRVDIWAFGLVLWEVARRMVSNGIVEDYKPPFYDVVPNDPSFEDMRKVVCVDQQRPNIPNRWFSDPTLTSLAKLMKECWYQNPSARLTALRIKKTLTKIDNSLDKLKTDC
The note with it: read-out: IC50 Alk2/ACVRR1; kinase activity; ATP 10 Micromolar; 10-point, duplicate. How it is done:
(§1) This was a 10-point assay starting from 100 μM to 100 nM performed in duplicate. The ATP concentration was 10 Micromolar.

Another data set addresses Alk3/BMPR1A (Homo sapiens, UniProt P36894). Conditions: read-out: IC50 Alk3/BMPR1A; kinase activity; ATP 10 Micromolar; 10-point, duplicate. The procedure: as §1
For the next data set, the target named is Alk6 (Homo sapiens, UniProt O00238). Conditions: read-out: IC50 Alk6/BMPRII; kinase activity; ATP 10 Micromolar; 10-point, duplicate. How it is done:
as §1

Data set [2] in a line: Plasma protein binding by equilibrium dialysis. It is filed as in vitro ADME. The note with it: mouse plasma. In general terms: Equilibrium dialysis compares concentrations on both sides of a semipermeable membrane.
Another data set deals with T2, TGFbetaR2 (Homo sapiens, UniProt P37173).
T2 construct: purchased Reaction Biology Corporation (Malvern, PA)
The experiment in a line: In vitro kinase IC50. The note with it: kinase activity; ATP 10 Micromolar; 10-point, duplicate. It is filed as biochemical. The text has this:
(§2) The ATP concentration was 10 Micromolar.

The next data set concerns the target T3, BMPRII (Homo sapiens, UniProt Q13873).
T3 construct: purchased Reaction Biology Corporation (Malvern, PA)
T3 sequence (Q13873 27-1038): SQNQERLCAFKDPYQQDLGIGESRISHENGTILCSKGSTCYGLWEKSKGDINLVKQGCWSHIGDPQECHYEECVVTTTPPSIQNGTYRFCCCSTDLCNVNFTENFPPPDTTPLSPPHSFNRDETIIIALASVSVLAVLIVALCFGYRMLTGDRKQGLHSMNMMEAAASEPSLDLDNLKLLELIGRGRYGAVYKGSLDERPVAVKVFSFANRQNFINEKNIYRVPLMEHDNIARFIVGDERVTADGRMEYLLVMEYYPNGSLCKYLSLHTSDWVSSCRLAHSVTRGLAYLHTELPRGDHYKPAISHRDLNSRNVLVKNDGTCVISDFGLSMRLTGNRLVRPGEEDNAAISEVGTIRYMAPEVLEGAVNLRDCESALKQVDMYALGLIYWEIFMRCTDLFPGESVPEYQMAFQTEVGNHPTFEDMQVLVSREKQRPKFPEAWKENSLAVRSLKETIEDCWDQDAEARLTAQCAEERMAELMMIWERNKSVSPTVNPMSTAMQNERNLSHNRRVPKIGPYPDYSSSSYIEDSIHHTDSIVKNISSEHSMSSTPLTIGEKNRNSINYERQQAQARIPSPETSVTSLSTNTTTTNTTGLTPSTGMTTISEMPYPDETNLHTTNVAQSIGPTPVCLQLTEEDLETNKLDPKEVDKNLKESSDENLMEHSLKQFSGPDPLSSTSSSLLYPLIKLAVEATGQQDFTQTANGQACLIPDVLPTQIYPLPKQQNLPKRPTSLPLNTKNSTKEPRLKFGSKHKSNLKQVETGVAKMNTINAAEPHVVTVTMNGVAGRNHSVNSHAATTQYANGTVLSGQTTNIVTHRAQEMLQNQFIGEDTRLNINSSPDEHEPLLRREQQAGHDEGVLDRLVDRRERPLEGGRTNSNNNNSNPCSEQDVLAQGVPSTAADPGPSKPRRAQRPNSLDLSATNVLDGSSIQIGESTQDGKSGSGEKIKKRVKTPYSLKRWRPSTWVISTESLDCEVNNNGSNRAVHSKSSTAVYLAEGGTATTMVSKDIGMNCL
The experiment in a line: In vitro kinase IC50. The note with it: kinase activity; ATP 10 Micromolar; 10-point, duplicate. Format: biochemical.
Source text: as §2

The subject of data set [3] is H1299 Id1-luc tumor xenografts. Put plainly: Tumor xenograft Id1 promoter-luciferase luminescence. Format: in vivo, nude mice. Conditions: 3 mg/kg IP; 4 h, 24 h, and 48 h following treatment; greatest effect at 24 h. How it is done: H1299 cells were stably transfected with the Id1 promoter-luciferase reporter. Five million cells were injected subcutaneously into the flank of NCI female nude mice. After approximately 12 days the mice were anesthetized and the luciferase activity measured. Baseline luciferase activity was obtained just prior to the injection of inhibitors. Mice were injected IP with 150 mg/kg luciferin-D and after a 15-min uptake period tumors were imaged with IVIS Spectrum and analyzed using Living Image software. […] The tumors were harvested on ice, homogenized, and placed in lysis buffer.

Data set [4] concerns the target T1, Alk2/ACVRR1. Set-up: purchased Reaction Biology Corporation (Malvern, PA). The note with it: reported; read-out: IC50 for the BMP type I receptor Alk2; cited from earlier work.

Sequence of Alk6 (O00238 149-502 limits assumed): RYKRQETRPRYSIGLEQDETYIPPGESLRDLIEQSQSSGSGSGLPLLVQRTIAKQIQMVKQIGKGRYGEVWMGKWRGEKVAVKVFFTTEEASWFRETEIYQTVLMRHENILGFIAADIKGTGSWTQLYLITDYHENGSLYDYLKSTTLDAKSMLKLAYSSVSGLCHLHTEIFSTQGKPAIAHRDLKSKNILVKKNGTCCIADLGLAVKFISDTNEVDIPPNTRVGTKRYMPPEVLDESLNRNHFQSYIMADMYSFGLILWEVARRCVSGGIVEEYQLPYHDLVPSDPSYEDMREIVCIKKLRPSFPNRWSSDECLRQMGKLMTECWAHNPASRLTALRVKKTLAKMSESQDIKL
T2 sequence (P37173 23-567): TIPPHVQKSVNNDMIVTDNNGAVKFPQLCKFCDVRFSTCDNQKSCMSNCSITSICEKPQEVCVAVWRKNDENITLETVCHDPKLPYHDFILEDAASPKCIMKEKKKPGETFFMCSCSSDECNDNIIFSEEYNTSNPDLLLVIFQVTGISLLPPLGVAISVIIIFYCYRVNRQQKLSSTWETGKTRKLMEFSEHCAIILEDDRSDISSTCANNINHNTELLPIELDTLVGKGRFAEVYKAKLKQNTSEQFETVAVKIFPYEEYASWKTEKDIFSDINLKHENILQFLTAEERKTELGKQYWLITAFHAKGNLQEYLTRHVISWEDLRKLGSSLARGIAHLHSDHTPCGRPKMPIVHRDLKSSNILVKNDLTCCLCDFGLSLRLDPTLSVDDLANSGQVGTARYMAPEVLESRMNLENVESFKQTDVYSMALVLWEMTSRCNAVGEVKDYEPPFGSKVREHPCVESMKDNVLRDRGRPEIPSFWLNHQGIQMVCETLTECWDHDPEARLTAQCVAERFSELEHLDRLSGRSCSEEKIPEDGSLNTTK
Sequence of Alk3/BMPR1A (P36894 24-532): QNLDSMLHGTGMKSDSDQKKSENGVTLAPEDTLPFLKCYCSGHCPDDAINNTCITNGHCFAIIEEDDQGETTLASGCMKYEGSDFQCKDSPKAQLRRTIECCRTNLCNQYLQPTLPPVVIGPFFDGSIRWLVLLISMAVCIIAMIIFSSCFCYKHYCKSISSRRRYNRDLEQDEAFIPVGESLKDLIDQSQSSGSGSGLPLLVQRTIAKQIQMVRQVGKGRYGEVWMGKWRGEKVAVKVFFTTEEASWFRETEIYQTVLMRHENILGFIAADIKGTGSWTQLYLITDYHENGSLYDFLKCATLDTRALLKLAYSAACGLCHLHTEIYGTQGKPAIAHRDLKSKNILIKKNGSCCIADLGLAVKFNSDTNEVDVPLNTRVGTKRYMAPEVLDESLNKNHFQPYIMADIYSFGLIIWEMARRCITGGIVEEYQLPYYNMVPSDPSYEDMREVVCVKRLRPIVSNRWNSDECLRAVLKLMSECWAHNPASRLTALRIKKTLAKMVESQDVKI

As to `c1ccc2c(-c3cnn4cc(-c5ccc(OCCN6CCOCC6)cc5)cnc34)ccnc2c1` [DMH2], the IC50 at Alk2/ACVRR1 [1] is 23 nM; on Alk3/BMPR1A it was 92 nM; at Alk6, 43 nM; on TGFbetaR2 it was 193 nM; at BMPRII, 7950 nM; at Alk2/ACVRR1 [4] it was 42.8 nM. For the same compound, the “percent binding plasma proteins” value in data set [2] is on record as 98.2 % +/−1.5. Further, the “tumor luminescence (Id1 promoter) compared to baseline” value in data set [3] is recorded as “increased”.

(Values after publication PMC4822253, “Inhibition of BMP and of TGFβ receptors downregulates expression of XIAP and TAK1 leading to lung cancer cell death” (Molecular Cancer, 2016).)
